Experiments:
Experiment in all cases: relative viability (nuclei count vs DMSO), 5 days (fraction); higher = more cells survive
[1] = compound: C1/C(=C\C2=CC=CS2)/C(=O)/C(=C/C3=CC=CS3)/C1 + CC(=O)c1c(C)c2cnc(Nc3ccc(N4CCNCC4)cn3)nc2n(C2CCCC2)c1=O [Palbociclib] (partner 0.5 µM)
Method in brief: (§1)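 Relative viability equals treated-well nuclei counts divided by vehicle-well nuclei counts. Counts came from 4× images of lung cancer cell lines grown in 1536-well plates for 5 days after pin-tool dosing on the day after seeding. Dosing used one drug alone or a fixed anchor-drug dose plus five library-drug doses (not always all listed) in √10 steps, and values are medians of duplicate plates.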

TPCA-1 + Linsitinib = compound: C1=CC(=CC=C1C2=CC(=C(S2)NC(=O)N)C(=O)N)F [TPCA-1] + C[C@]1(O)C[C@@H](c2nc(-c3ccc4ccc(-c5ccccc5)nc4c3)c3c(N)nccn32)C1 [Linsitinib] (partner 1 µM)
Method in brief: as §1

[2] = compound: C1/C(=C\C2=CC=CS2)/C(=O)/C(=C/C3=CC=CS3)/C1 + CC(C)C[C@H](NC(=O)[C@H](Cc1ccccc1)NC(=O)c1cnccn1)B(O)O [Bortezomib] (partner 0.002 µM)
Method in brief: as §1

Lestaurtinib + OSI-027 = compound: C[C@]12O[C@H](C[C@]1(O)CO)n1c3ccccc3c3c4c(c5c6ccccc6n2c5c31)CNC4=O [Lestaurtinib] + COc1cccc2cc(-c3nc([C@H]4CC[C@H](C(=O)O)CC4)n4ncnc(N)c34)[nH]c12 [OSI-027] (partner 0.5 µM)
Method in brief: as §1

Cell Line	relative viability ([1]; first compound 0.2 µM)	relative viability ([1]; first compound 0.6325 µM)	relative viability ([1]; first compound 2 µM)	relative viability ([1]; first compound 6.325 µM)	relative viability ([1]; first compound 20 µM)	relative viability (TPCA-1 + Linsitinib; first compound 0.04 µM)	relative viability (TPCA-1 + Linsitinib; first compound 0.1265 µM)	relative viability (TPCA-1 + Linsitinib; first compound 0.4 µM)	relative viability (TPCA-1 + Linsitinib; first compound 1.265 µM)	relative viability (TPCA-1 + Linsitinib; first compound 4 µM)	relative viability ([2]; first compound 0.2 µM)	relative viability ([2]; first compound 0.6325 µM)	relative viability ([2]; first compound 2 µM)	relative viability ([2]; first compound 6.325 µM)	relative viability ([2]; first compound 20 µM)	relative viability (Lestaurtinib + OSI-027; first compound 0.005 µM)	relative viability (Lestaurtinib + OSI-027; first compound 0.01581 µM)	relative viability (Lestaurtinib + OSI-027; first compound 0.05 µM)	relative viability (Lestaurtinib + OSI-027; first compound 0.1581 µM)	relative viability (Lestaurtinib + OSI-027; first compound 0.5 µM)
NCI-H1437	0.322	0.314	0.282	0.307	0.336	1.17	0.936	1.02	0.926	0.754	0.544	0.503	0.479	0.495	0.479	0.885	0.949	0.952	0.747	0.698
NCI-H1651	0.48	0.554	0.563	0.47	0.527	1.13	0.891	0.985	0.947	0.974	0.876	0.995	0.916	0.914	0.925	0.745	0.799	0.566	0.753	0.493
NCI-H1666	0.68	0.645	0.624	0.521	0.672	0.756	0.688	0.785	0.993	0.723	0.724	0.67	0.643	0.559	0.666	0.904	0.934	0.917	0.757	0.518
NCI-H1734	0.386	0.336	0.346	0.225	0.359	0.992	0.729	0.878	0.829	0.89	1.03	0.953	0.906	0.805	0.881	0.678	0.571	0.368	0.362	0.187
NCI-H1755	0.432	0.454	0.458	0.333	0.409	0.978	0.941	1	1	0.852	1.01	0.897	1.03	0.853	0.928	0.814	0.706	0.471	0.406	0.338
NCI-H1792	0.665	0.656	0.713	0.331	0.627	0.574	0.467	0.561	0.47	0.283	0.968	0.957	1.06		0.832	0.95	0.698	0.83	0.776	0.424
NCI-H1915	0.507	0.55	0.515	0.459	0.5	1.16	1.12	1.15	1.04	1.03	0.982	0.97	1.02	0.908	0.895	0.687	0.477	0.42	0.337	0.246
NCI-H1975	0.661	0.547	0.426	0.506	0.549	0.93	0.916	0.971	0.918	0.946	0.435	0.421	0.361	0.334	0.367	0.795	0.75	0.534	0.412	0.347
NCI-H1993	0.643	0.639	0.595	0.562	0.646	0.711		0.748	0.686	0.622	1.07	0.946	1.36	0.915	1.19	0.59	0.555	0.524	0.534	0.423
NCI-H2009	0.178	0.217	0.255		0.208	1.25	1.18	1.11	1.19	1.06	1.04	0.939	1.08	0.736	0.991	0.578	0.449	0.365	0.441	0.24
NCI-H2023	0.454	0.386	0.495	0.235	0.332	0.706	0.721	0.765	0.559	0.409	0.964	0.942	1.21	0.869	0.868	0.375	0.407	0.341	0.296	0.104
NCI-H2085	0.482	0.5	0.484	0.46	0.495	0.901	0.859	1	0.912	0.926	1.16	1.08	1.15	1.02	1.03	0.707	0.822	0.801	0.658	0.521
NCI-H2087	0.272	0.215	0.271	0.168	0.303	0.989	0.938	1.03	0.836	0.553	0.922	0.742	0.963	0.512	0.73	0.627	0.634	0.531	0.408	0.338
NCI-H2126	0.343	0.339	0.363	0.332	0.374	0.752	0.657	0.709	0.724	0.595	1.16	1.1	1.21	0.994	1.1	0.6	0.844	0.665	0.658	0.539
NCI-H2228	0.784	0.697	0.61	0.793	0.686	0.789	0.723	0.627	0.825	0.455	1.11	0.987	1.44	0.808	0.86	0.528	0.627	0.349	0.294	0.104
NCI-H2347	0.381	0.454	0.449	0.398	0.413	1.14	1.02	0.899	0.931	0.903	0.847	1	1.04	0.831	1.04	0.402	0.423	0.409	0.33	0.367

Reference: the supplement of paper PMC10307832
